Test results from patent US11952328B2, “Selective ship inhibitors for treating disease” (THE RESEARCH FOUNDATION FOR THE STATE UNIVERSITY OF NEW YORK, priority 2018, dated 2024).

Experiments:
SHIP1 = target: T1, SHIP1 (Homo sapiens, UniProt Q92835); test: Malachite Green phosphatase assay; assay type: biochemical; conditions: at 1 nm and 500 μM
T1 sequence (Q92835 1-1189): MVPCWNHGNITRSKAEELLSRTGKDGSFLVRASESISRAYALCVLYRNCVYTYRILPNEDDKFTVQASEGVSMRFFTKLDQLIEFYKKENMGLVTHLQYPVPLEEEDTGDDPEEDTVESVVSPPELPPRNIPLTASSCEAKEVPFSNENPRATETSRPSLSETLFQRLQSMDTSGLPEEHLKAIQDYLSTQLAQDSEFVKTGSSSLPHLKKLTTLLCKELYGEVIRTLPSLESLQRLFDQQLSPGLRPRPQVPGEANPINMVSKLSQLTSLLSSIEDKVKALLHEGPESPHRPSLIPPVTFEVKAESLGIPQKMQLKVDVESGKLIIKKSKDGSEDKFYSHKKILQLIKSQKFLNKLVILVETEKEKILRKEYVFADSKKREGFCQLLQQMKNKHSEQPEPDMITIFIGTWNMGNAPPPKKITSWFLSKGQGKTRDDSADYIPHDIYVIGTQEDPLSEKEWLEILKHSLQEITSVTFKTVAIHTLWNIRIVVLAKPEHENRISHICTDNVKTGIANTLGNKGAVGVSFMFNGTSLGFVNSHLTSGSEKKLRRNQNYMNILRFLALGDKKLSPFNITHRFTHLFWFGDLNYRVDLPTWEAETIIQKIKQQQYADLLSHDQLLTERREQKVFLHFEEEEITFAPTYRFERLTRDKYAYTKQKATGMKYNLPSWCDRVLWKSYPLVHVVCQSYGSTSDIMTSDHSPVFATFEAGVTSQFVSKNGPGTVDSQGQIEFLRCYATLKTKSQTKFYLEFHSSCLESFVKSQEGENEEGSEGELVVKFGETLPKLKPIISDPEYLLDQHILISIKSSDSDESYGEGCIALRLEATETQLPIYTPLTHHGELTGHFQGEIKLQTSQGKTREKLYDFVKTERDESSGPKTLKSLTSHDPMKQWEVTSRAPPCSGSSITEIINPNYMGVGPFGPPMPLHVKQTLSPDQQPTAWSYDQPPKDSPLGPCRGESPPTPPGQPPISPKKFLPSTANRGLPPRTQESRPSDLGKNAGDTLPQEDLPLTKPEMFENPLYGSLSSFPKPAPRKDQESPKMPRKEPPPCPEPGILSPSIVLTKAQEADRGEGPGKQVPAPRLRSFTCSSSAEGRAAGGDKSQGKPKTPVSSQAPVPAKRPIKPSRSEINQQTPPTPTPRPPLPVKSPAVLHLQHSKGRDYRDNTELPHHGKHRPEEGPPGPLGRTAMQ
Description: FIGS. 2A-2C show the results of a SHIP1 malachite phosphatase assay. […] This predicts that the sulfonic acid is acting as a phosphate mimic, binding in active site where the 5′-phosphate of PIP3 binds.
K223 is an analog of EDANS, with the corresponding sulfonyl chloride of K223 being used as a donor for developing FRET-based nucleic acid probes and protease substrates. The docking pose of K223 with the model of the SHIP1 active site predicted that the sulfonic acid acts as a phosphate mimic, binding in the active site where the 5′-phosphate of PIP3 binds (FIG. 2B). The origin of the SHIP1 selectivity for K223 was not clear, however the nonpolar naphthalene core rests near K682 in the model of SHIP1, and this residue is a more polar arginine in SHIP2.

T and NK cells = test: Continuous dosing of patients with selective SHIP1 inhibitor; assay type: in vivo; conditions: administration periods of 3, 4, 5, 6, 7 or more days
Experimental: An effective dose of selective SHIP1 inhibitor (e.g. K223) is administered by any appropriate means (e.g., orally, intravenously, intraperitoneally) to a patient for administration periods of 3, 4, 5, 6, 7 or more days.

inhibition of SHIP1 (SHIP1): potent and selective inhibition of SHIP1
Structure (SMILES): NCCNc1cccc2cccc(S(=O)(=O)O)c12 [Compound K223, 8-((2-aminoethyl)amino)naphthalene-1-sulfonic acid]
responsiveness of activated T and NK cells (T and NK cells): hyporesponsiveness
